Laboratory results as given in the NIST ThermoML archive (doi:10.1016/j.jct.2015.01.005).

Assay: molar heat capacity at saturation pressure
Details: Crystal 2, Small (less than 1 g) adiabatic calorimetry

O[C@@H]1[C@@H](O)[C@@H]2OC[C@@H](O2)[C@H]1O [1,6-anhydro-β-D-glucopyranose]
Details	molar heat capacity [J/K/mol]
5.26 K	0.1543
5.62 K	0.1754
5.93 K	0.2008
6.31 K	0.2396
6.75 K	0.2955
7.19 K	0.3641
7.65 K	0.4465
8.1 K	0.5445
8.57 K	0.6608
9.04 K	0.7922
9.51 K	0.9407
9.99 K	1.112
10.53 K	1.33
11.15 K	1.603
11.77 K	1.9
12.4 K	2.236
13.05 K	2.607
13.7 K	3.009
14.35 K	3.44
15.01 K	3.908
15.78 K	4.473
16.65 K	5.151
17.53 K	5.868
18.42 K	6.609
19.31 K	7.372
20.21 K	8.174
21.39 K	9.247
22.86 K	10.63
24.35 K	12.04
25.84 K	13.46
27.08 K	14.64
28.51 K	16.01
30.04 K	17.43
31.72 K	19.01
33.56 K	20.71
35.41 K	22.39
37.27 K	24
39.13 K	25.62
41.1 K	27.29
43.17 K	29.02
45.24 K	30.72
47.32 K	32.39
49.4 K	34.01
51.49 K	35.61
53.58 K	37.22
55.67 K	38.75
57.78 K	40.27
59.89 K	41.77
62 K	43.24
64.11 K	44.7
66.22 K	46.15
68.34 K	47.58
70.46 K	49
72.68 K	50.47
75.01 K	51.98
77.35 K	53.49
78.72 K	54.4
79.68 K	54.97
80.68 K	55.63
80.76 K	55.68
82.03 K	56.47
82.6 K	56.8
82.68 K	56.86
84.52 K	57.99
84.6 K	58.06
86.44 K	59.2
86.52 K	59.23
88.37 K	60.4
88.45 K	60.45
90.29 K	61.6
90.37 K	61.65
92.23 K	62.79
92.3 K	62.82
94.16 K	63.97
94.23 K	64.01
96.1 K	65.16
96.17 K	65.21
98.04 K	66.35
98.11 K	66.41
99.98 K	67.6
100.05 K	67.69
101.92 K	69.02
101.99 K	69.12
103.87 K	70.46
103.93 K	70.5
105.82 K	71.75
105.88 K	71.76
107.77 K	72.94
107.83 K	72.96
109.73 K	74.07
109.79 K	74.13
111.69 K	75.2
111.75 K	75.25
113.65 K	76.35
113.71 K	76.37
115.61 K	77.45
115.67 K	77.49
117.58 K	78.55
117.64 K	78.6
119.55 K	79.66
119.61 K	79.69
121.58 K	80.81
123.55 K	81.91
125.53 K	83.02
127.51 K	84.1
129.49 K	85.22
131.47 K	86.32
133.45 K	87.41
135.44 K	88.53
137.43 K	89.66
139.41 K	90.74
141.41 K	91.84
143.4 K	92.95
145.4 K	94.05
147.39 K	95.15
149.39 K	96.28
151.39 K	97.39
153.39 K	98.5
155.4 K	99.63
157.4 K	100.7
159.41 K	101.8
161.42 K	103
163.43 K	104.1
165.44 K	105.2
167.46 K	106.4
169.47 K	107.5
171.49 K	108.6
173.51 K	109.8
175.53 K	110.9
177.54 K	112
179.56 K	113.2
181.59 K	114.4
183.61 K	115.5
185.63 K	116.7
187.66 K	117.8
189.68 K	119
191.71 K	120.2
193.74 K	121.4
195.77 K	122.5
197.79 K	123.7
199.82 K	124.9
201.86 K	126.1
203.89 K	127.3
205.92 K	128.5
207.96 K	129.7
209.99 K	130.9
212.02 K	132.1
214.06 K	133.3
216.09 K	134.5
218.13 K	135.7
220.17 K	137
222.21 K	138.2
224.25 K	139.4
226.29 K	140.7
228.33 K	141.9
230.36 K	143.2
232.4 K	144.5
234.45 K	145.8
236.49 K	147
238.53 K	148.3
240.57 K	149.6
242.62 K	150.8
244.66 K	152.1
246.7 K	153.4
248.74 K	154.7
250.79 K	156.1
252.83 K	157.3
254.87 K	158.6
256.92 K	160
258.96 K	161.3
260.23 K	162.2
261.01 K	162.6
262.15 K	163.5
263.05 K	163.9
264.2 K	164.7
265.1 K	165.3
266.25 K	166
267.14 K	166.6
268.29 K	167.4
269.19 K	167.9
270.34 K	168.8
271.23 K	169.2
272.38 K	170.1
273.28 K	170.7
274.43 K	171.3
275.32 K	172
276.48 K	172.8
277.37 K	173.3
278.52 K	174.2
279.42 K	174.8
280.57 K	175.4
281.47 K	176.1
282.61 K	176.8
283.51 K	177.3
284.66 K	178.2
285.56 K	178.8
286.7 K	179.6
287.61 K	180.1
288.75 K	180.9
289.65 K	181.5
290.79 K	182.4
291.7 K	182.9
292.84 K	183.6
293.74 K	184.3
294.88 K	185.1
295.79 K	185.6
296.92 K	186.3
297.83 K	187
298.97 K	187.9
299.88 K	188.4
301.01 K	189.4
301.92 K	189.8
303.05 K	190.6
303.97 K	191.3
305.1 K	192.1
306.02 K	192.6
307.14 K	193.5
308.06 K	194.1
309.19 K	195.1
310.11 K	195.5
311.24 K	196.5
312.16 K	197
313.28 K	197.9
314.21 K	198.4
315.33 K	199.3
316.26 K	199.9
317.38 K	200.9
318.31 K	201.4
319.43 K	202.3
320.36 K	202.9
321.48 K	203.7
322.42 K	204.4
323.53 K	205.4
324.47 K	206
325.58 K	206.9
326.52 K	207.5
327.64 K	208.4
328.57 K	209.1
329.69 K	210.1
330.63 K	210.6
331.74 K	211.7
332.69 K	212.3
333.8 K	213.3
334.74 K	214
335.85 K	215.1
336.8 K	215.7
337.91 K	216.8
338.86 K	217.5
339.97 K	218.6
340.91 K	219.3
342.02 K	220.5
342.97 K	221.2
344.08 K	222.5
345.03 K	223.2
346.14 K	224.6
347.09 K	225.4
348.19 K	226.9
349.14 K	227.7
350.25 K	229.3
351.21 K	230.1
352.31 K	231.9
353.27 K	232.8
354.37 K	234.7
355.33 K	235.6
356.43 K	237.6
357.38 K	238.7
358.48 K	240.7
359.44 K	242.1
360.54 K	244.1
361.49 K	245.9
362.59 K	248.2
363.55 K	249.9
364.64 K	252.8
365.6 K	255.1
366.69 K	258.7
367.64 K	261.8
368.73 K	265.9
